Results published in patent US20160039742A1, “EXTRACTION OF TRAMADOL FROM NAUCLEA LATIFOLIA SMITH” ([…] FOURIER - GRENOBLE 1, priority 2013, published 2016).
Marks after values point to notes of the source that are not given here.

Tests used:
[1] = system: glutamate-induced nociception in mice; experiment: Glutamate-induced nociception; assay type: in vivo
Procedure: (§1) Experiments in mice were performed on C57BL/6 male mice (Janvier, Le-Genest-St-Isle, France) weighting 26-35 g, housed in individual cages with food and water ad libitum and kept in a 12 hours/12 hours light-dark cycle. All animal experimentations were carried out in accordance with the rules of the European Committee Council Directive of Nov. 24, 1986 (86/609/EEC) and all procedures were approved by the local department of the veterinarian services for the use and care of animals (agreement #380612). All efforts were made to minimize animal suffering and reduce the number of animals used in each series of experiments.
Animals were treated with the purified tramadol isolated from Nauclea Latifolia (8, 16 or 32 mg/kg, p.o.), dipyrone (60 mg/kg, p.o.) or 0.9% NaCl (p.o.) 1 hour before test. A volume of 20 μl of glutamate (30 μmol/paw) was injected intraplantarly in the ventral surface of the right hind paw. Animals were observed individually for 15 min following glutamate injection. The amount of time they spent licking the injected paw was recorded with a chronometer and was considered as indicative of nociception. Data were analyzed by two-way Anova followed by Tukey's (HSD) multi-comparison test.

[2] = system: acetic acid-induced abdominal constrictions in mice; experiment: Acetic acid induced abdominal constriction (writhing) test; assay type: in vivo
Procedure: as §1
One hour after oral administration of these substances, each animal was injected i.p. with 0.6% acetic acid in a volume of 10 ml/kg body weight. After acetic acid injection, the number of stretching or writhing responses per animal was recorded during 30 min after a latency period of 5 min. Inhibition was expressed in percentage.
Data were analyzed by two-way Anova followed by Tukey's (HSD) multi-comparison test.

[3] = system: hotplate-induced pain in mice; experiment: Hotplate test; assay type: in vivo
Procedure: as §1
The apparatus consisted of a water bath in which was placed a metallic cylinder (14 cm diameter×10 cm height). The hot plate was maintained at 55±0.5° C. Each mouse (six per group) acted as its own control. One hour before treatment, the reaction time of each mouse (liking of the forepaws or jumping response) was measured twice with a 10 min interval. The average of the two readings was obtained as the initial reaction time.
(§2) The protection percentage was calculated as the ratio (reaction time following tramadol administration−initial reaction time): initial reaction time.

formalin-induced pain = experiment: Formaline-induced nociception (formalin test); assay type: in vivo, mice; details: 32 mg/kg p.o.
Procedure: as §1
The formalin test was carried out as described by Hunskaar and Hole (1987) with slight modifications. The negative control was treated with 0.9% NaCl. […] Other groups of mice were treated with methanolic fractions of Nauclea Latifolia (16, 40 or 80 mg/kg, p.o.), or purified tramadol isolated from Nauclea Latifolia (8, 16 and 32 mg/kg, p.o.). Pain was induced by injecting 50 μl of 2.5% formalin (40% formaldehyde in distilled water) in the right hind paw pad. […] The amount of time spent licking and biting the injected paw was indicative of pain and was recorded during the first 0-5 min (first phase), followed by the 15-30 min period (second phase). Data were analyzed by two-way Anova followed by Tukey's (HSD) multi-comparison test.

[4] = system: tail flick response in mice after immersion in 55° C. water bath; experiment: Tail-flick test; assay type: in vivo
Procedure: as §1
The tail-flick test was carried out according to the method described by D'Amour and Smith. This involved immersing extreme 3 cm of the mice's tail in water bath containing water at a temperature of 55±0.5° C. […] The reaction time was recorded with a stopwatch. […] The reaction time of mice was taken at intervals of 15, 30 and 60 min after a latency period of 1 hour following the administration of the decoction and drugs.
as §2

Question: With `COc1cccc([C@]2(O)CCCC[C@H]2CN(C)C)c1` (racemic) [F27 of N. latifolia, (±)-cis-2-dimethylaminomethyl-1-(3-methoxyphenyl)cyclohexanol] as the compound, how does the “antinociception in glutamate-induced nociception” value ([1]; 8, 16 or 32 mg/kg, p.o.) read?
Answer: marked and dose-related antinociception

Question: And the “mean ID50 (95% confidence limits), glutamate-induced nociception” value ([1]; p.o., 1 hour before test)?
Answer: 21.17 (6.49-47.23)

Question: What about the “counter effect of naloxone on acetic acid-induced writhing” value ([2]; FIG. 4) of the same compound?
Answer: absence of counter effect of naloxone

Question: What about the “bioactivity of HPLC fractions in the writhing test” value ([2]; HPLC fractions of root bark extract, writhing test) of the same compound?
Answer: peak of activity

Question: And the “mean ID50 (95% confidence limits), acetic acid-induced abdominal constrictions” value ([2]; oral administration)?
Answer: 14.13 (5.53-41.88) mg/kg

Question: And the “Protection against thermal nociception (%)” value ([3]; 8 mg/kg p.o., 0.5 hr)?
Answer: −2.2%

Question: And the “Protection against thermal nociception (%)” value ([3]; 8 mg/kg p.o., 1 hr)?
Answer: 22.9%

Question: And the “Protection against thermal nociception (%)” value ([3]; 8 mg/kg p.o., 2 hrs)?
Answer: 20.2* %

Question: And the “Protection against thermal nociception (%)” value ([3]; 8 mg/kg p.o., 3 hrs)?
Answer: 50.6** %

Question: What about the “Protection against thermal nociception (%)” value ([3]; 8 mg/kg p.o., 4 hrs) of the same compound?
Answer: 4.6%

Question: What about the “Protection against thermal nociception (%)” value ([3]; 8 mg/kg p.o., 5 hrs) of the same compound?
Answer: −0.2%

Question: And the “Protection against thermal nociception (%)” value ([3]; 8 mg/kg p.o., 6 hrs)?
Answer: −0.5%

Question: What about the “Protection against thermal nociception (%)” value ([3]; 16 mg/kg p.o., 0.5 hr) of the same compound?
Answer: 1.9%

Question: What about the “Protection against thermal nociception (%)” value ([3]; 16 mg/kg p.o., 1 hr) of the same compound?
Answer: 27.0* %

Question: What about the “Protection against thermal nociception (%)” value ([3]; 16 mg/kg p.o., 2 hrs) of the same compound?
Answer: 21.3* %

Question: And the “Protection against thermal nociception (%)” value ([3]; 16 mg/kg p.o., 3 hrs)?
Answer: 52.4** %

Question: And the “Protection against thermal nociception (%)” value ([3]; 16 mg/kg p.o., 4 hrs)?
Answer: 6.5%

Question: And the “Protection against thermal nociception (%)” value ([3]; 16 mg/kg p.o., 5 hrs)?
Answer: −2.0%

Question: What about the “Protection against thermal nociception (%)” value ([3]; 16 mg/kg p.o., 6 hrs) of the same compound?
Answer: 4.6%

Question: And the “Protection against thermal nociception (%)” value ([3]; 32 mg/kg p.o., 0.5 hr)?
Answer: 1.9%

Question: And the “Protection against thermal nociception (%)” value ([3]; 32 mg/kg p.o., 1 hr)?
Answer: 45.2** %

Question: And the “Protection against thermal nociception (%)” value ([3]; 32 mg/kg p.o., 2 hrs)?
Answer: 50.9** %

Question: And the “Protection against thermal nociception (%)” value ([3]; 32 mg/kg p.o., 3 hrs)?
Answer: 71.9*** %

Question: What about the “Protection against thermal nociception (%)” value ([3]; 32 mg/kg p.o., 4 hrs) of the same compound?
Answer: 25.2* %

Question: And the “Protection against thermal nociception (%)” value ([3]; 32 mg/kg p.o., 5 hrs)?
Answer: 21.3* %

Question: What about the “Protection against thermal nociception (%)” value ([3]; 32 mg/kg p.o., 6 hrs) of the same compound?
Answer: 27.8* %

Question: What about the “time at which increase in latency response reached maximal level” value ([3]; 32 mg/kg, oral administration) of the same compound?
Answer: 3 h

Question: What about the “effect of naloxone on antinociceptive effect in hot plate assay” value ([3]; mouse, in vivo) of the same compound?
Answer: Naloxone antagonized antinociceptive effect

Question: And the “blockade of pain emanating from inflammation, second phase (15-30 min) of formalin test” value (formalin-induced pain)?
Answer: 31.74%

Question: What about the “neurogenic-induced pain blockade, first phase (0-5 min) of formalin test” value (formalin-induced pain) of the same compound?
Answer: 64.07%

Question: And the “Protection agains thermal nociception (%)” value ([4]; 8 mg/kg p.o., 15 min)?
Answer: 7.7%

Question: What about the “Protection agains thermal nociception (%)” value ([4]; 8 mg/kg p.o., 30 min) of the same compound?
Answer: 14.4* %

Question: And the “Protection agains thermal nociception (%)” value ([4]; 8 mg/kg p.o., 60 min)?
Answer: 21.4* %

Question: And the “Protection agains thermal nociception (%)” value ([4]; 16 mg/kg p.o., 15 min)?
Answer: 5.6%

Question: What about the “Protection agains thermal nociception (%)” value ([4]; 16 mg/kg p.o., 30 min) of the same compound?
Answer: 34.3** %

Question: And the “Protection agains thermal nociception (%)” value ([4]; 16 mg/kg p.o., 60 min)?
Answer: 42.9*** %

Question: And the “reduction of painful sensation due to tail immersion in warm water” value ([4]; 32 mg/kg oral, after a latency period of 30 min)?
Answer: 63.05%

Question: What about the “Protection agains thermal nociception (%)” value ([4]; 32 mg/kg p.o., 15 min) of the same compound?
Answer: 18.7%

Question: What about the “Protection agains thermal nociception (%)” value ([4]; 32 mg/kg p.o., 30 min) of the same compound?
Answer: 63.0*** %

Question: And the “dose dependence of reduction of painful sensation in tail immersion” value ([4]; mouse, in vivo)?
Answer: dose-dependent

Question: And the “effect of naloxone on analgesic activity in tail-flick test” value ([4]; mouse, in vivo)?
Answer: blocked by naloxone

Question: For `CC(=O)Oc1ccccc1C(=O)O` [Aspirin, reference compound], which “Acetic acid-induced writhing inhibition (%)” value ([2]; 150 mg/kg p.o.) is on record?
Answer: 52.9%

Question: What about the “Protection against thermal nociception (%)” value ([3]; 150 mg/kg p.o., 0.5 hr) of the same compound?
Answer: 1.7%

Question: What about the “Protection against thermal nociception (%)” value ([3]; 150 mg/kg p.o., 1 hr) of the same compound?
Answer: 35.5* %

Question: And the “Protection against thermal nociception (%)” value ([3]; 150 mg/kg p.o., 2 hrs)?
Answer: 2.2* %

Question: What about the “Protection against thermal nociception (%)” value ([3]; 150 mg/kg p.o., 3 hrs) of the same compound?
Answer: 39.5* %

Question: What about the “Protection against thermal nociception (%)” value ([3]; 150 mg/kg p.o., 4 hrs) of the same compound?
Answer: 8.5%

Question: And the “Protection against thermal nociception (%)” value ([3]; 150 mg/kg p.o., 5 hrs)?
Answer: 10.6%

Question: What about the “Protection against thermal nociception (%)” value ([3]; 150 mg/kg p.o., 6 hrs) of the same compound?
Answer: 3.5%

Question: And the “Protection agains thermal nociception (%)” value ([4]; 150 mg/kg p.o., 15 min)?
Answer: 6.4%

Question: And the “Protection agains thermal nociception (%)” value ([4]; 150 mg/kg p.o., 30 min)?
Answer: 9.5%

Question: What about the “Protection agains thermal nociception (%)” value ([4]; 150 mg/kg p.o., 60 min) of the same compound?
Answer: 7.1%

Question: For `CN1CC[C@]23c4c5ccc(O)c4O[C@H]2[C@@H](O)C=C[C@H]3[C@H]1C5` [Morphine, reference compound], which “Protection against thermal nociception (%)” value ([3]; 5 mg/kg s.c., 0.5 hr) is on record?
Answer: 7.4%

Question: And the “Protection against thermal nociception (%)” value ([3]; 5 mg/kg s.c., 1 hr)?
Answer: 44.4** %

Question: What about the “Protection against thermal nociception (%)” value ([3]; 5 mg/kg s.c., 2 hrs) of the same compound?
Answer: 46.8** %

Question: What about the “Protection against thermal nociception (%)” value ([3]; 5 mg/kg s.c., 3 hrs) of the same compound?
Answer: 40.4** %

Question: And the “Protection against thermal nociception (%)” value ([3]; 5 mg/kg s.c., 4 hrs)?
Answer: 43.6** %

Question: And the “Protection against thermal nociception (%)” value ([3]; 5 mg/kg s.c., 5 hrs)?
Answer: 24.6* %

Question: What about the “Protection against thermal nociception (%)” value ([3]; 5 mg/kg s.c., 6 hrs) of the same compound?
Answer: 17.1%

Question: What about the “Protection agains thermal nociception (%)” value ([4]; 5 mg/kg s.c., 15 min) of the same compound?
Answer: 27.3%

Question: And the “Protection agains thermal nociception (%)” value ([4]; 5 mg/kg s.c., 30 min)?
Answer: 62.1*** %

Question: And the “Protection agains thermal nociception (%)” value ([4]; 5 mg/kg s.c., 60 min)?
Answer: 77.8*** %

Question: `Cc1c(N(C)CS(=O)(=O)[O-])c(=O)n(-c2ccccc2)n1C.[Na+]` [dipyrone, reference compound] was tested. Which “inhibition of glutamate-induced nociception” value ([1]; dipyrone (60 mg/kg, p.o.)) did it give?
Answer: 70.30%
